pIC50: −log10 of the molar value.
Tested on: A375 multi-cell spheroids with HUVEC/MSC, viability
Assay: Anticancer human tumor A375 cell line growth inhibition [GQUAD];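 note: spheroids exposed to compounds for seven days before readout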
Conditions: for pIC50: curve of first compound; for viability, T/C: stronger effect = lower value
Summary of the method: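 Multi-cell-type spheroids of tumor cells with HUVEC and mesenchymal stem cells, treated with drug combinations. Concentrations descend in half-log steps from near clinical Cmax, or from 10 microM where Cmax is unknown; viability read-out.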

[1] = second compound 0.0316 µM, first compound 0.0316 µM
[2] = second compound 0.0316 µM, first compound 0.316 µM
[3] = second compound 0.1 µM, first compound 0.0316 µM
[4] = second compound 0.1 µM, first compound 0.316 µM
[5] = second compound 0.316 µM, first compound 0.0316 µM
[6] = second compound 0.316 µM, first compound 0.316 µM
[7] = second compound 1 µM, first compound 0.0316 µM
[8] = second compound 1 µM, first compound 0.316 µM
[9] = second compound 3.16 µM, first compound 0.0316 µM
[10] = second compound 3.16 µM, first compound 0.316 µM
[11] = second compound 10 µM, first compound 0.0316 µM
[12] = second compound 10 µM, first compound 0.316 µM

## COc1ncnc(C2CC2)c1-c1ncc2cnn(Cc3ccc(-c4nc(C(F)(F)F)cn4C(C)C)cc3)c2n1 + Cc1cnc(CNC(=O)c2c(=O)c3ccc(N4CCCN(C)CC4)nc3n3c2sc2ccccc23)cn1
Second compound 0.0316 µM
  pIC50: < 5.00
Second compound 0.1 µM
  pIC50: < 5.00
Second compound 0.316 µM
  pIC50: > 7.50
Second compound 1 µM
  pIC50: > 7.50
Second compound 3.16 µM
  pIC50: > 7.50
Second compound 10 µM
  pIC50: > 7.50
[1]
  viability, T/C: 101%
Second compound 0.0316 µM, first compound 0.1 µM
  viability, T/C: 110%
[2]
  viability, T/C: 102%
Second compound 0.0316 µM, first compound 1 µM
  viability, T/C: 103%
Second compound 0.0316 µM, first compound 3.16 µM
  viability, T/C: 104%
Second compound 0.0316 µM, first compound 10 µM
  viability, T/C: 111%
[3]
  viability, T/C: 69.3%
Second compound 0.1 µM, first compound 0.1 µM
  viability, T/C: 73.5%
[4]
  viability, T/C: 57.3%
Second compound 0.1 µM, first compound 1 µM
  viability, T/C: 61.4%
Second compound 0.1 µM, first compound 3.16 µM
  viability, T/C: 70.3%
Second compound 0.1 µM, first compound 10 µM
  viability, T/C: 61.2%
[5]
  viability, T/C: 49.3%
Second compound 0.316 µM, first compound 0.1 µM
  viability, T/C: 43.6%
[6]
  viability, T/C: 47.1%
Second compound 0.316 µM, first compound 1 µM
  viability, T/C: 49%
Second compound 0.316 µM, first compound 3.16 µM
  viability, T/C: 46.2%
Second compound 0.316 µM, first compound 10 µM
  viability, T/C: 47.7%
[7]
  viability, T/C: 36.2%
Second compound 1 µM, first compound 0.1 µM
  viability, T/C: 35%
[8]
  viability, T/C: 34.5%
Second compound 1 µM, first compound 1 µM
  viability, T/C: 38.5%
Second compound 1 µM, first compound 3.16 µM
  viability, T/C: 33.5%
Second compound 1 µM, first compound 10 µM
  viability, T/C: 33.5%
[9]
  viability, T/C: 29.6%
Second compound 3.16 µM, first compound 0.1 µM
  viability, T/C: 37.2%
[10]
  viability, T/C: 30.9%
Second compound 3.16 µM, first compound 1 µM
  viability, T/C: 33.5%
Second compound 3.16 µM, first compound 3.16 µM
  viability, T/C: 31.7%
Second compound 3.16 µM, first compound 10 µM
  viability, T/C: 33.9%
[11]
  viability, T/C: 30%
Second compound 10 µM, first compound 0.1 µM
  viability, T/C: 26%
[12]
  viability, T/C: 27.6%
Second compound 10 µM, first compound 1 µM
  viability, T/C: 26.4%
Second compound 10 µM, first compound 3.16 µM
  viability, T/C: 32.7%
Second compound 10 µM, first compound 10 µM
  viability, T/C: 31.9%

## Cc1[nH]c2ccccc2c1CCNCc1ccc(/C=C/C(=O)NO)cc1 + Cc1[nH]c2ccc(F)cc2c1-c1nc2c3cccnc3c3ncccc3c2[nH]1
Second compound 0.0316 µM
  pIC50: 6.82
Second compound 0.1 µM
  pIC50: 6.82
Second compound 0.316 µM
  pIC50: 6.82
Second compound 1 µM
  pIC50: 6.86
Second compound 3.16 µM
  pIC50: 7.22
Second compound 10 µM
  pIC50: 7.02
Second compound 0.0316 µM, first compound 0.000999 µM
  viability, T/C: 102%
Second compound 0.0316 µM, first compound 0.00316 µM
  viability, T/C: 108%
Second compound 0.0316 µM, first compound 0.00999 µM
  viability, T/C: 115%
[1]
  viability, T/C: 112%
Second compound 0.0316 µM, first compound 0.0999 µM
  viability, T/C: 73.4%
[2]
  viability, T/C: 10.5%
Second compound 0.1 µM, first compound 0.000999 µM
  viability, T/C: 105%
Second compound 0.1 µM, first compound 0.00316 µM
  viability, T/C: 109%
Second compound 0.1 µM, first compound 0.00999 µM
  viability, T/C: 110%
[3]
  viability, T/C: 124%
Second compound 0.1 µM, first compound 0.0999 µM
  viability, T/C: 72%
[4]
  viability, T/C: 9.67%
Second compound 0.316 µM, first compound 0.000999 µM
  viability, T/C: 110%
Second compound 0.316 µM, first compound 0.00316 µM
  viability, T/C: 98.1%
Second compound 0.316 µM, first compound 0.00999 µM
  viability, T/C: 118%
[5]
  viability, T/C: 116%
Second compound 0.316 µM, first compound 0.0999 µM
  viability, T/C: 72.4%
[6]
  viability, T/C: 10.8%
Second compound 1 µM, first compound 0.000999 µM
  viability, T/C: 98%
Second compound 1 µM, first compound 0.00316 µM
  viability, T/C: 103%
Second compound 1 µM, first compound 0.00999 µM
  viability, T/C: 113%
[7]
  viability, T/C: 106%
Second compound 1 µM, first compound 0.0999 µM
  viability, T/C: 65.9%
[8]
  viability, T/C: 8.42%
Second compound 3.16 µM, first compound 0.000999 µM
  viability, T/C: 76.4%
Second compound 3.16 µM, first compound 0.00316 µM
  viability, T/C: 78.5%
Second compound 3.16 µM, first compound 0.00999 µM
  viability, T/C: 81.9%
[9]
  viability, T/C: 86%
Second compound 3.16 µM, first compound 0.0999 µM
  viability, T/C: 26.4%
[10]
  viability, T/C: 5.39%
Second compound 10 µM, first compound 0.000999 µM
  viability, T/C: 86%
Second compound 10 µM, first compound 0.00316 µM
  viability, T/C: 93%
Second compound 10 µM, first compound 0.00999 µM
  viability, T/C: 98.3%
[11]
  viability, T/C: 92.2%
Second compound 10 µM, first compound 0.0999 µM
  viability, T/C: 48.4%
[12]
  viability, T/C: 5.49%

Source: PubChem BioAssay AID2060485 (Molecular Pharmacology Branch, DTP, NCI, 2025)
